Test results: patent US6664231B1, “Anti-fungal peptides” (priority 1993, dated 2003)
Where “and” joins values, the source holds several entries; their conditions need not be identical. Equal values may be shown once. Read-outs that look alike come from different tables or passages of the source.

Legend:
[1] = tested on: Candida albicans; assay: Radial diffusion assay, Candida species (Table 2); assay type: cell-based; details: higher effective concentration of agarose than Table 1
[2] = tested on: Candida krusei; assay: Radial diffusion assay, Candida species (Table 2); assay type: cell-based
Description: (§1) The anti-fungal activity of Domain III derived peptides was also evaluated in vitro against a variety of fungal species, including Candida glabrata, Candida krusei, Candida lusitaniae, Candida parapsilosis, and Candida tropicalis. For these experiments, one colony of each of the above-listed Candida strains was picked from a Sabouraud's dextrose agar (SDA) plate and inoculated into 5 mL of Sabouraud's dextrose broth (SDB, 2% dextrose and 1% neopeptone) or, for C. krusei, Yeast Malt broth (YM, Becton Dickenson, Cockeysville, Md., cat no. BL 11405) in 12 mL polyproplyene snap-cap tubes. The tube cultures were incubated overnight with shaking at 37° C.
(§2) Cultures were harvested when the OD570 of a 1:10 dilution was greater than or equal to the following values: 0.083 for Candida glabrata, 0.154 for Candida krusei, 0.117 for Candida lusitaniae, 0.076 for Candida parapsilosis, and 0.192 for Candida tropicalis. Cells were centrifuged for 7 minutes in an Eppendorf microfuge at 3,000 rpm (about 1,500 g). The cell pellet was resuspended in 1 mL PBS and approximately 1×10^7 cells in about 0.5 mL were added to 10 mL of cooled underlay agar (3% SBD, 1% agarose, 0.02% Tween 20, 10 mM sodium phosphate buffer, pH 7.4 at about 45° C.). The suspension was poured into square petri plates, allowed to solidify, and wells cut as described above.
(§3) Peptides were two-fold serially diluted with D-PBS from about 20 μL of a starting concentration of approximately 1 mg/mL. Five μL of peptide dilution were added per well and allowed to diffuse for at least about 30 minutes into the agar at […] (to allow complete diffusion). Then 10 mL of molten overlayer agarose (6% SDB, 1% agarose, 10 mM sodium phosphate buffer, pH 7.4 at about 45° C.) were added and the plates were incubated inverted at […] overnight. Plates were stained with a dilute Coomassie solution, inhibition zones were measured with calipers and net areas were calculated, then converted to pmole values by PROBIT analysis.

[3] = tested on: Candida lusitaniae; assay: Radial diffusion assay, Candida species (Table 2); assay type: cell-based
Description: as §1, §2, §3

[4] = tested on: Candida parapsilosis; assay: Radial diffusion assay, Candida species (Table 2); assay type: cell-based
Description: as §1, §2, §3

[5] = tested on: Candida glabrata; assay: Radial diffusion assay, Candida species (Table 2); assay type: cell-based
Description: as §1, §2, §3

[6] = tested on: Candida tropicalis; assay: Radial diffusion assay, Candida species (Table 2); assay type: cell-based
Description: as §1, §2, §3

[7] = tested on: polyene-resistant (ATCC 38247), 5-fluorocytosine-resistant (ATCC 44373), azole-resistant (ATCC 62342), ketoconazole-resistant (ATCC 64124) C. albicans; assay: Fungicidal activity on commercially-available drug-resistant Candida strains; assay type: cell-based, Candida albicans; details: ATCC 38247, 44373, 62342, 64124
Description: Further experiments were performed to determine the anti-fungal activity of Domain III derived peptides on commercially-available strains of Candida considered resistant to other anti-fungal agents: polyene-resistant C. albicans (ATCC Accession No. 38247), 5-fluorocytosine-resistant C. albicans (ATCC No. 44373), azole-resistant C. albicans (ATCC No. 62342), and ketoconazole-resistant C. albicans (ATCC No. 64124).

[8] = tested on: C. albicans (CA-1, Strain SLU-1); assay: Radial diffusion assay; assay type: cell-based, Candida albicans; details: pmoles of peptide added to well to achieve a 30 mm^2 zone, PROBIT analysis; crude or purified (P′) peptide
Procedure, shortened: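 Peptides, serially diluted 2-fold in D-PBS (top ~1 mg/mL), diffused 3 h at 37° C into pH 7.4 phosphate-buffered agarose seeded with 1×10^6 CFU/mL yeast, before overnight growth under a 6% Sabouraud overlayer. Net inhibition zones measured after Coomassie staining; PROBIT fit of log pmol vs area gave pmol for 30 mm^2.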

[9] = tested on: C. albicans (SLU-1 strain); assay: Survival of mice systemically infected with Candida albicans; assay type: in vivo, mouse; details: 1.24×10^5 C. albicans i.v.; 3 doses i.v. (Day 0, 2, 4); 10 mg/kg XMP.36, 5 mg/kg XMP.97, 10 mg/kg XMP.102, 1 mg/kg amphotericin B; FIG. 4
Description: Groups of 15 male DBA/2J mice at age 6-8 weeks (Jackson Laboratory, Bar Harbor, Me.) were inoculated with 1.24×10^5 C. albicans (SLU-1 strain as described in Example 2) by intravenous injection into the tail vein. Cells were prepared for animal injection as follows. A single colony was selected and used to inoculate a 5 mL tube of Sabouraud dextrose broth. Incubation was at 30° C. with shaking to allow aeration for a period of 15-18 hours. Four mL of the overnight culture were added to 100 mL of fresh Sabouraud dextrose broth (1:25 dilution) and incubated for 4 hours. The 100 mL culture was pelleted at 1,500×g for 5 minutes. Cells were washed twice by adding 20 mL D-PBS, vortexing and re-centrifuging. Cells were collected in one tube and a sample is diluted 1:10 to be measured by OD570 (1 OD unit=3×10^7 CFU/mL). The cells were diluted to the desired dose in D-PBS and kept at 4° C. until used. Doses were confirmed by performing serial ten-fold dilutions and plating 50 μl per dilution on Sabouraud dextrose agar. Colonies were counted the following day after overnight incubation at 37° C. A […] culture yielded approximately 1×10^9 CFU/mL.
Immediately after fungal challenge, the mice were intravenously injected via the tail vein with a 0.1 mL volume of 10 mg/kg XMP.36, 5 mg/kg XMP.97, 10 mg/kg XMP.102, 1 mg/kg amphotericin B (Sigma, St. Louis, Mo.), or phosphate buffered saline (PBS) as a control. Treatment with the same amounts of peptides, amphotericin B or PBS was repeated at Day 2 and Day 4 (except that the second dose of XMP.36 was given at a dose of 5 mg/kg). Mice were monitored twice daily for mortality until termination of the study at Day 28. […] In FIG. 4, the symbol “X” represents survival after treatment with amphotericin B; open squares, treatment with XMP.97; open circles, treatment with XMP.36; open diamonds, treatment with XMP.102; and open triangles, treatment with buffer. Statistical significance was evaluated using the Lifetest Survival Curve analysis. [Lawless, Statistical Models and Methods for Lifetime Data, John Wiley & Sons, New York (1982).] The duration and almost linear decline in survival is analogous to human opportunistic candidiasis.
In additional 3-dose studies, groups of 15 mice were injected with a fungal challenge of 0.5×10^5 Candida cells, prepared for injection as described above, followed by treatment at Day 0, Day 2 and Day 5 with a 0.1 mL volume of 10 mg/kg XMP.127, 5 mg/kg XMP.13, 5 mg/kg XMP.37, 1 mg/kg amphotericin B, or PBS as a control. […] In FIG. 5, the symbol “X” represents survival after treatment with amphotericin B; open circles, treatment with XMP.127; filled triangles, treatment with buffer; open squares, treatment with XMP.37; open triangles, treatment with XMP.13.
Further studies to determine the effectiveness of anti-fungal peptides were performed at an increased dosing regimen (6 doses rather than 3 doses as described above). Groups of 9 week-old male DBA/2J mice were inoculated with concentrations of 2.7×10^5 Candida cells (prepared as described above) by intravenous injection in the tail vein. Immediately after fungal challenge, the mice were treated with a 0.1 mL volume of 10 mg/kg XMP.284, 1 mg/kg amphotericin B or PBS as a control at Day 0, Day 2, Day 4, Day 7, Day 9 and Day 11. All amphotericin B-treated animals were protected.
Additional 6-dose experiments were conducted as described above, using inocula of 0.5-3.0×10^5 Candida cells and using 0.01, 0.05, 0.1, 0.5, 1.0 or 5.0 mg/kg doses of peptide.

[10] = tested on: Trychophyton rubrum ATCC 28188; assay: organism not typed; assay type: cell-based; details: read-out: Minimum Fungicidal Concentration, Trychophyton rubrum ATCC 28188
Description: (§4) The anti-fungal activity of Domain III derived peptides was evaluated against a variety of fungal species, including species of Candida. Cryptococcus, Fusarium, Trichophyton, and Aspergillus, by an additional assay protocol utilizing Alamar Blue. Alamar Blue is an indicator dye formulated to measure quantitatively the proliferation of a variety of human or animal cells, bacteria, or fungi. It consists of an oxidation-reduction (REDOX) indicator that yields a colorimetric change in response to metabolic activity. For these experiments, species of Candida and Cryptococcus were grown in Sabouraud's dextrose broth (SDB) overnight. Strains of filamentous fungi (Aspergilius, Fusanum, Trichophyton) were obtained by irrigation of a confluent culture from a petri dish. Cells were washed and adjusted to a concentration of 5.0×10^3/mL in fresh SDB. […] Controls included amphotericin B, fluconazole, ketoconazole and griseofulvin. Antifungal drugs were also diluted in the same manner. Assays were performed in 96-well microuiter plates. […] The wells to be plated were determined by OD590 readings. The lowest concentration of peptide which maintained the blue color (or OD reading) of the blank was chosen along with the next two higher concentrations. Plates were allowed to grow for 18-48 hours depending on the rate of growth of each fungus. Minimal fungicidal activity (MFC) was determined as a 99.9% killing of the starting inoculum.

[11] = tested on: Cryptococcus neoformans ATCC 13690; assay: microbe, parasite or virus in culture; assay type: cell-based; details: Cryptococcus neoformans, ATCC13690; read-out: Minimum Fungicidal Concentration, Cryptococcus neoformans ATCC 13690
Description: as §4

[12] = tested on: Aspergillus niger ATCC 16404; assay: microbe, parasite or virus in culture; assay type: cell-based; details: Aspergillus niger, ATCC16404; read-out: Minimum Fungicidal Concentration, Aspergillus niger ATCC 16404
Description: as §4

[13] = tested on: Fusarium solani ATCC 36031; assay: microbe, parasite or virus in culture; assay type: cell-based; details: Fusarium solani, ATCC36031; read-out: Minimum Fungicidal Concentration, Fusarium solani ATCC 36031
Description: as §4

[14] = tested on: Candida glabrata ATCC 2001; assay: microbe, parasite or virus in culture; assay type: cell-based; details: Nakaseomyces glabratus, ATCC2001; read-out: Minimum Fungicidal Concentration, Candida glabrata ATCC 2001
Description: as §4

[15] = tested on: Aspergillus ATCC 13073; assay: microbe, parasite or virus in culture; assay type: cell-based; details: Aspergillus, ATCC13073; read-out: Minimum Fungicidal Concentration, Aspergillus ATCC 13073
Description: as §4

[16] = tested on: Candida parapsilosis ATCC 22019; assay: microbe, parasite or virus in culture; assay type: cell-based; details: Lodderomyces parapsilosis, ATCC22019; read-out: Minimum Fungicidal Concentration, Candida parapsilosis ATCC 22019
Description: as §4

[17] = tested on: Candida albicans (SLU-1 and ATCC strains); assay: microbe, parasite or virus in culture; assay type: cell-based; details: Candida albicans
Description: as §4

H-KSKVGVLIQLFHKK-NH2 [XMP.166]
Anti-fungal activity: pmol/30 mm^2 zone, Candida albicans [1]: >3,079 pmol/30 mm^2 zone
Anti-fungal activity: pmol/30 mm^2 zone, Candida krusei [2]: 3,240 pmol/30 mm^2 zone
Anti-fungal activity: pmol/30 mm^2 zone, Candida lusitaniae [3]: 1,133 pmol/30 mm^2 zone
Anti-fungal activity: pmol/30 mm^2 zone, Candida parapsilosis [4]: 1,199 pmol/30 mm^2 zone
Anti-fungal activity: pmol/30 mm^2 zone, Candida glabrata [5]: 2,100 pmol/30 mm^2 zone
Anti-fungal activity: pmol/30 mm^2 zone, Candida tropicalis [6]: 864 pmol/30 mm^2 zone
Fungicidal activity on resistant strains [7]: not reduced
C. albicans pmol/30 mm^2 zone [8]: 171 pmol/30 mm^2 zone

H-KSKVGALIQLFHKK-NH2 [XMP.36]
Fungicidal activity on resistant strains [7]: not reduced
C. albicans pmol/30 mm^2 zone [8]: 197 pmol/30 mm^2 zone and 231 pmol/30 mm^2 zone
mice survived until Day 28 [9]: 33%

OC(Cn1cncn1)(Cn1cncn1)c1ccc(F)cc1F [Fluconazole, fluconazole]
MFC [10]: > 10 µg/mL
MFC [11]: > 10 µg/mL
MFC [12]: > 10 µg/mL
MFC [13]: > 10 µg/mL
MFC [14]: > 10 µg/mL
MFC [15]: > 50 µg/mL
MFC [16]: > 10 µg/mL
MFC ([17]; ATCC10231, strain ATCC 10231, read-out: Minimum Fungicidal Concentration, Candida albicans ATCC 10231): > 10 µg/mL
MFC ([17]; ATCC18840, strain ATCC 18840, read-out: Minimum Fungicidal Concentration, Candida albicans ATCC 18840): > 10 µg/mL
MFC ([17]; ATCC26555, strain ATCC 26555, read-out: Minimum Fungicidal Concentration, Candida albicans ATCC 26555): > 10 µg/mL
MFC ([17]; ATCC44808, strain ATCC 44808, read-out: Minimum Fungicidal Concentration, Candida albicans ATCC 44808): > 10 µg/mL
MFC ([17]; ATCC90028, strain ATCC 90028, read-out: Minimum Fungicidal Concentration, Candida albicans ATCC 90028): > 10 µg/mL
MFC ([17]; strain SLU-1, read-out: Minimum Fungicidal Concentration, Candida albicans SLU-1): > 10 µg/mL
